According to patent US20220265723A1, “NON-VIRAL MODIFICATION OF MESENCHYMAL STEM CELLS” (NATIONAL UNIVERSITY OF SINGAPORE, priority 2019, published 2022):
Read-outs that look alike come from different tables or passages of the source.

What was measured:
[1] = cited from earlier work; for Potential of activation (fold): per enzyme/prodrug system
CDy::UPRT_AT-MSCs = experiment: Sensitivity of modified AT-MSCs to 5FC and 5FU, MTS assay; type: cell-based, human
Description: The cell viability at each time point was measured by standard MTS assay. At various time points, samples without 5FC treatment served as control. […] MTS assay were used to measure cell viability post treatment. Conditions without 5FU treatment was taken as 100%. Results were presented as mean±SD (n=4). […] Isotype antibodies served as respective controls. […] At the end of incubation, cells were stained with Alizarin red S. Calcium deposits stained with Alizarin red S were one of the phenotype indicating differentiated AT-MSCs. […] Fourteen days later, cells were stained with Oil Red-O. This dye stained for oil droplets visible in the cells, indicative of adipogenic differentiation. The images were captured at 20× magnification;
Quadruplicates of AT-MSC, MKN1, MKN45, MDA-MB-231 (10,000 cells per well) and U-251MG (4000 cells per well) for each treatment were plated into 96-well plates. […] One to five days later, plates were subjected to the CellTiter 96 Aqueous One Solution Cell Proliferation Assay (Promega). The colorimetric read out was measured spectrophotometrically at 490 nm. Results were expressed as the percentage of cell viability, in relative to cells in condition without 5-FC or 5-FU (set to 100%).

[2] = tested on: prodrug-activating enzyme of each system: CA, CD, CPG2, Cyt-450, dCK, HSV-TK, NR, PNP, TP, VZV-TK; conditions: systems: CA/CPT-11, CD/5-FC, CPG2/CMDA, Cyt-450/CP, IF, dCK/ara-C, HSV-TK/GCV, ACV, NR/CB1954, PNP/6-MePdR, TP/5′-DFUR, VZV-TK/ara-M; read-out: KM (S0.5); cited from earlier work
[3] = systems: CA/CPT-11, CD/5-FC, CPG2/CMDA, CJS278, Cyt-450, dCK/ara-C, HSV-TK, NR/CB1954, PNP/6-MePdR, TP/5′-DFUR, VZV-TK/ara-M, XGPRT/6-TX, 6-TG; cited from earlier work
[4] = active drug formed from the prodrug of the system, read-out: Potency, IC50 (μM) Drug
[5] = prodrug of the enzyme/prodrug system, read-out: Potency, IC50 (μM) Prodrug

Cc1ncnc2nc[nH]c12
IC50 [1, 4]: 3.7 µM

O=c1[nH]c(=O)n([C@H]2C[C@H](O)[C@@H](CO)O2)cc1F [5-FUdR]
IC50 [1, 4]: 0.0023 µM

Nc1nc(=O)[nH]cc1F [5FC, 5-fluorocytosine]
cell viability of CDy::UPRT modified AT-MSCs (CDy::UPRT_AT-MSCs; 150 μg/mL 5FC, over time): reduced cell viability over time

O=c1[nH]cc(F)c(=O)[nH]1 [5FU, 5-fluorouracil]
susceptibility of CDy::UPRT_AT-MSCs versus unmodified AT-MSCs (CDy::UPRT_AT-MSCs; 100 μg/mL 5FU, 5 days): increased susceptibility of suicide effect
IC50 [1, 4]: 4 to 23.5 µM

C[C@H]1O[C@@H](n2cc(F)c(=O)[nH]c2=O)[C@H](O)[C@@H]1O [5′-DFUR]
Km [2]: 325 to 433 µM
Degree of activation (fold) [3]: 165 fold
Potential of activation (fold) [1]: 7000 fold
IC50 [1, 5]: 17 µM

Cc1ncnc2c1ncn2[C@H]1C[C@H](O)[C@@H](CO)O1 [6-MePdR]
Km [2]: 14 to 23 µM
Degree of activation (fold) [3]: 40 fold
Potential of activation (fold) [1]: 25-1,000 fold
IC50 [1, 5]: > 200 µM

Nc1nc(=S)c2[nH]cnc2[nH]1 [6-TG]
Degree of activation (fold) [3]: 6-TG: 10 fold
IC50 [1, 5]: 0.5 µM

O=c1[nH]c(=S)c2[nH]cnc2[nH]1 [6-TX]
Degree of activation (fold) [3]: 6-TX: >20; fold
IC50 [1, 5]: > 50 µM

NC(=O)c1cc(N2CC2)c([N+](=O)[O-])cc1[N+](=O)[O-] [CB1954]
Km [2]: 900 µM
Degree of activation (fold) [3]: 14-10,000 fold
Potential of activation (fold) [1]: >50,000 fold
IC50 [1, 5]: > 1000 µM

CS(=O)(=O)OCCN(CCCl)c1ccc(C(=O)O)cc1 [CMBA]
IC50 [1, 4]: 8 to 65 µM

CS(=O)(=O)OCCN(CCCl)c1ccc(C(=O)N[C@@H](CCC(=O)O)C(=O)O)cc1 [CMDA]
Km [2]: 3.4 µM
IC50 [1, 5]: 1700 to 3120 µM

CCc1c2c(nc3ccc(OC(=O)N4CCC(N5CCCCC5)CC4)cc13)-c1cc3c(c(=O)n1C2)COC(=O)[C@]3(O)CC [CPT-11]
IC50 [1, 5]: 1.6 to 8.1 µM

O=P1(N(CCCl)CCCl)NCCCO1 (centres unmarked) [CP]
Km [2]: 300 µM
IC50 [1, 5]: ~4000 µM

COc1cccc2c1C(=O)c1c(O)c3c(c(O)c1C2=O)C[C@@](O)(C(=O)CO)C[C@@H]3O[C@H]1C[C@H](N)[C@H](O)[C@H](C)O1 [Doxorubicin]
Degree of activation (fold) [3]: 11 fold
IC50 [1, 4]: 0.012 µM
Potential of activation (fold) [1]: 21 fold

Nc1nc(O)c2ncn(COC(CO)CO)c2n1 [GCV, ganciclovir]
IC50 [1, 5]: 200 to 600 µM

O=P1(NCCCl)OCCCN1CCCl (centres unmarked) [IF]
Km [2]: 480 µM
IC50 [1, 5]: ~4000 µM

CCc1c2c(nc3ccc(O)cc13)-c1cc3c(c(=O)n1C2)COC(=O)[C@]3(O)CC [SN-38]
IC50 [1, 4]: 0.003 to 0.011 µM

Nc1ccn([C@@H]2O[C@H](CO)[C@@H](O)[C@@H]2O)c(=O)n1 [ara-C]
Km [2]: 25.6 µM
Degree of activation (fold) [3]: 2-100 fold
IC50 [1, 5]: 0.3 to 0.6 µM

COc1ncnc2c1ncn2[C@@H]1O[C@H](CO)[C@@H](O)[C@@H]1O [ara-M]
Km [2]: 56 µM
Degree of activation (fold) [3]: 55-600 fold
Potential of activation (fold) [1]: >2,000 fold
IC50 [1, 5]: > 2000 µM
